According to patent publication US20250140406A1, “CLASSIFYING TUMORS AND PREDICTING RESPONSIVENESS” (Oncocyte Corporation, priority 2022, published 2025):
Like-named read-outs stand apart in the source and are kept apart here.

Legend:
[1] = test system: cancer cell lines classified IM, MSL, M; experiment: PRISM screen compound sensitivity correlated with IM, MSL and M subtype of cell lines (101 gene signature); type: cell-based
[2] = test system: cancer cell lines, DetermaIO classes; experiment: Association of PRISM compound sensitivity with DetermaIO (DTIO) cell line classes; type: cell-based
[3] = correlation of PRISM compound sensitivity with IM subtype correlation, test cell set (188 cell lines)
[4] = correlation of PRISM compound sensitivity with M subtype correlation, test cell set (188 cell lines)
[5] = correlation of PRISM compound sensitivity with MSL subtype correlation, test cell set (188 cell lines)
[6] = correlation of PRISM compound sensitivity with DTIO (DetermaIO), test cell set (188 cell lines)
[7] = correlation of PRISM compound sensitivity with DTIO (DetermaIO), training cell set (371 cell lines)
[8] = correlation of PRISM compound sensitivity with IM subtype correlation, test cell set
[9] = correlation of PRISM compound sensitivity with M subtype correlation, test cell set
[10] = correlation of PRISM compound sensitivity with MSL subtype correlation, test cell set
[11] = correlation of PRISM compound sensitivity with DTIO, test cell set
[12] = correlation of PRISM compound sensitivity with DTIO, training cell set
[13] = classification of association of compound sensitivity with IM, MSL and M cell line classes, training data set
[14] = association of compound sensitivity with DetermaIO classes, test data set
[15] = association of compound sensitivity with DetermaIO classes, training data set
[16] = subtype (IM, MSL or M) assigned to the compound by negative correlation of PRISM sensitivity with subtype, training cell set (371 cell lines), 101 gene signature

SMILES | IM Corr test [1, 3] | M Corr test [1, 4] | MSL Corr test [1, 5] | DTIO Corr test [2, 6] | DTIO Corr train [2, 7] | IM Corr test [1, 8] | M Corr test [1, 9] | MSL Corr test [1, 10] | DTIO Corr test [2, 11] | DTIO Corr train [2, 12] | other results
Nc1nccc2c1ncn2C1C=C(CO)C(O)C1O (centres unmarked) [3-deazaneplanocin-A] | −0.02722 | 0.1507 | 0.09034 | −0.05245 | −0.1309 |  |  |  |  |  | 
COc1ccc(S(=O)(=O)N2CCCN(S(=O)(=O)c3ccc(OC)c(OC)c3)CC2)cc1OC [SB-756050] |  |  |  |  |  | −0.03347 | −0.03952 | 0.01577 | −0.06711 | −0.07957 | 
CNC(=O)CN(CCN(CCN(CC(=O)[O-])CC(=O)NC)CC(=O)[O-])CC(=O)[O-].[Gd+3] [gadodiamide] |  |  |  |  |  | −0.07426 | 0.04886 | −0.03759 | −0.0433 | −0.1128 | 
C#C[C@]1(OC(=O)CCCCCC)CC[C@H]2[C@@H]3CCC4=CC(=O)CC[C@@H]4[C@H]3CC[C@@]21C [norethisterone-enanthate] |  |  |  |  |  |  |  |  |  |  | IM Corr test [1]: −0.05873; M Corr test [1]: 0.01774; MSL Corr test [1]: 0.1042; DTIO Corr test [2]: 0.009756; DTIO Corr train [2]: −0.1312
C/C(=N\NC(=O)[C@H]1C(=O)NC[C@@H]1c1ccccc1)c1cccc(Br)c1 [AC-264613] | −0.07621 | 0.0938 | 0.002402 | −0.03521 | −0.07682 |  |  |  |  |  | 
C=C(C)CN1CC[C@]23c4c5ccc(O)c4O[C@H]2c2[nH]c4ccccc4c2C[C@@]3(O)C1C5.Cl.O [SDM25N] | −0.1682 | 0.08807 | −0.06407 |  |  |  |  |  | −0.165 | −0.12 | 
CCOc1ccc(-n2c([C@@H](C)N(Cc3cccnc3)C(=O)Cc3ccc(OC(F)(F)F)cc3)nc3ncccc3c2=O)cc1 [AMG-487] | −0.08583 | 0.04766 | 0.1557 | −0.01666 | −0.0821 |  |  |  |  |  | 
COc1cc(OC)cc(N(CCNC(C)C)c2ccc3ncc(-c4cnn(C)c4)nc3c2)c1 [K84868168] |  |  |  |  |  |  |  |  |  |  | TNBCType train [1, 13]: MSL; DTIO Corr test [2, 14]: 0.006092; DTIO Corr train [2, 15]: −0.0744
CCS(=O)(=O)N(C)[C@H]1c2cc(C#N)ccc2OC(C)(C)[C@@H]1O [chromanol-293B-(−)-[3R,4S]] |  |  |  |  |  | −0.09685 | 0.08774 | 0.1021 | −0.09957 | −0.08029 | 
C=CC(=O)Nc1cc2c(Nc3ccc(F)c(Cl)c3)ncnc2cc1C#CC(C)(C)N1CCN(C)CC1.Cc1ccc(S(=O)(=O)O)cc1.Cc1ccc(S(=O)(=O)O)cc1 [AV-412] |  |  |  |  |  | −0.1668 | 0.2317 | 0.3378 | −0.04654 | −0.09469 | DTIO Corr test ([2]; correlation of compound sensitivity with DTIO, test set): −0.04654; DTIO Corr train ([2]; correlation of compound sensitivity with DTIO, training set): −0.09469
N#CCNC(=O)c1ccc(-c2ccnc(Nc3ccc(N4CCOCC4)cc3)n2)cc1 [cyt387] | 0.06763 | −0.1142 | −0.1416 | 0.000569 | −0.03421 |  |  |  |  |  | TNBCType train [1, 16]: MSL
COC(=O)CC[C@@H]1N=C(c2ccccn2)c2cc(Br)ccc2-n2c(C)cnc21 [remimazolam] | 0.03785 | −0.0431 | −0.1059 | −0.03395 | −0.02892 |  |  |  |  |  | TNBCType train [1, 16]: MSL
CCCCCCCC/C=C\CCCCCCCC(=O)N[C@@H](CO)Cc1ccc(O)cc1 [OMDM-2] |  |  |  |  |  | 0.07857 | −0.1315 | −0.1068 | 0.08864 | 0.00432 | TNBCType train ([1]; subtype (IM, MSL or M) with which PRISM compound sensitivity is negatively correlated, training cell set, 101 gene signature): MSL
COc1cc2ncnc(Nc3ccc(O)c(Br)c3)c2cc1OC [WHI-P154] | −0.227 | 0.2466 | 0.2152 |  |  |  |  |  | −0.06543 | −0.1245 | 
C[C@@H]1CN(Cc2ccc(F)cc2)CCN1C(=O)COc1ccc(Cl)cc1NC(N)=O.Cl [ZK811752] | 0.1095 | −0.08132 | −0.00448 | 0.04281 | 0.09953 |  |  |  |  |  | 
CC(C)C[C@H](NC(=O)CNC(=O)[C@H](Cc1ccc(O)cc1)NC(=O)[C@H](CO)NC(=O)[C@H](Cc1c[nH]c2ccccc12)NC(=O)[C@H](Cc1cnc[nH]1)NC(=O)[C@@H]1CCC(=O)N1)C(=O)N[C@@H](CCCNC(=N)N)C(=O)N1CCC[C@H]1C(=O)NCC(N)=O [gonadorelin] | −0.1061 | −0.01145 | −0.1224 |  |  |  |  |  |  |  | TNBCType train ([1]; subtype (IM, MSL or M) the PRISM compound sensitivity is associated with, training cell set (371 cell lines), 101 gene signature): MSL; DTIO Corr test ([2]; correlation of PRISM compound sensitivity with DTIO, test cell set (188 cell lines)): −0.06774; DTIO Corr train ([2]; correlation of PRISM compound sensitivity with DTIO, training cell set (371 cell lines)): −0.05189
O=C(NCc1cccc(O)c1)Nc1nc(-c2ccncc2)cs1 [K19333160] |  |  |  |  |  |  |  |  |  |  | TNBCType test ([1]; classification of association of compound sensitivity with IM, MSL and M cell line classes, test data set): MSL; TNBCType train [1, 13]: MSL; DTIO Corr test [2, 14]: 0.08122; DTIO Corr train [2, 15]: 0.04633
Cc1ccccc1-n1c(Cn2ncc3c(N)ncnc32)nc2cccc(C)c2c1=O [PIK-293] |  |  |  |  |  | −0.06338 | 0.066 | 0.00947 | 0.02467 | −0.1397 | 
Nc1cc(F)ccc1NC(=O)/C=C/c1cnn(C/C=C/c2ccccc2)c1 [K61688984] |  |  |  |  |  |  |  |  |  |  | TNBCType train [1, 13]: MSL; DTIO Corr test [2, 14]: −0.02541; DTIO Corr train [2, 15]: 0.06912
CC(C)CCN1c2nc(Nc3cc(F)c(O)c(F)c3)ncc2N(C)C(=O)C1C (centres unmarked) [BI-D1870] | −0.01584 | 0.01001 | 0.02005 |  |  |  |  |  | 0.01854 | −0.09163 | 
